Experimental data taken from patent US9856218B2, “Inhibitors of PRMT5 and methods of their use” (Ohio State Innovation Foundation, priority 2013, dated 2018).
Where two headings read alike, the source gives them in different places.

Key:
[1] = test system: AML cells (MV4-11 (FLT3-ITD) and Kasumi-1 (KITmut)); assay: Differentiation marker CD11b, flow cytometry; assay type: cell-based; conditions: MV4-11 and Kasumi-1
Protocol: Cells (1×10^6) were washed and passed through a […] filter (BD), then re-suspended in 200 μL binding buffer with or without 5 μL AnnexinV (for apoptosis detection) or CD11b (for maturation detection) antibody (BD Biosciences, Billerica, Mass.). After 15 min. of incubation cells were washed with PBS, re-suspended in 500 μL flow buffer and analyzed on a FACSCalibur cytometer (BD Biosciences). For apoptosis detection, 5 μL propidium iodide (PI) (BD Biosciences) was added to cell before running flow cytometry. Sorting for GFP-positive cells was carried out on BD FACS Aria instrument after filtering and washing cells 2× with ice cold PBS supplemented with 2% calf bovine serum and re-suspending in FACS buffer.
(§1) PRMT5 inhibition by C12 was also effective in promoting apoptosis and differentiation.
The increase in CD11b expression in AML cells lines followed a dose-dependent manner.

[2] = test system: MV411; assay: MTS growth inhibition assay; assay type: cell-based; conditions: Homo sapiens, MV4-11, MV411, FLT3-ITD+, read-out: IC50 μM
Protocol: (§2) Clonogenic assays were set up by plating 1×10^3 cell/mL in semi-solid methylcellulose medium (MethoCult, Stem Cell Technologies). Colonies were counted after 10-14 days using an inverted microscope. Growth inhibition assays were measured using a colorimetric MTS assay: 5×10^4 cells were plated in 100 μL final volume in a 96-well plate in the presence of different concentrations of C12 for 24, 48 and 72 hours at 37° C. Afterwards, 20 μL of the CellTiter 96W AQueous One Solution Reagent, which contains tetrazolium compound [3-(4,5-[…])-5-(3-carboxymethoxyphenyl)-2-(4-sulfophenyl)-2H-tetrazolium, inner salt; MTS] and an electron coupling reagent (phenazine ethosulfate; PES) (Promega, Madison Wis.), was added to each well. Within 1-4 hours of incubation at 37° C., the optical density at 490 and 690 nm was measured. Cell viability was calculated with respect to the control samples and reference background wavelength at 690 nm. At least three independent experiments were performed. Growth curve assays were done by counting live cells using Trypan blue exclusion and inverted microscope for >12 days after plating the cells in 1×10^5 concentrations.
as §1
(§3) Referring to FIGS. 34A and 34B, a colorimetric MTS assay was used to measure the proliferation rate of AML cell lines and primary blasts from patients after 48 hours incubation with a PRMT5 inhibitor compound (HLCL61 or C12). The dose-dependent decrease in absorbance indirectly correlates with the number of metabolically active live cells. The IC50 values represent the concentration of the compound at which 50% cell death was achieved.

[3] = test system: THP-1; assay: MTS growth inhibition assay; assay type: cell-based; conditions: Homo sapiens; THP-1, FLT3-WT, 48 h
Protocol: as §2, §1, §3

[4] = test system: OCI-AML3; assay: MTS growth inhibition assay; assay type: cell-based; conditions: Homo sapiens, OCI-AML-3; OCI-AML3, NPM1+, 48 h
Protocol: as §2, §1, §3

[5] = test system: KG-1; assay: MTS growth inhibition assay; assay type: cell-based; conditions: Homo sapiens; KG-1, P53 mutation, 48 h
Protocol: as §2, §1, §3

[6] = test system: Kasumi-1; assay: MTS growth inhibition assay; assay type: cell-based; conditions: Homo sapiens, Kasumi-1, KIT mutation, read-out: IC50 μM
Protocol: as §2, §1, §3

[7] = MTD study, four mice each dose; assay type: in vivo; conditions: mouse, in vivo, ip
Protocol: Controlled shRNA depletion was evaluated in a murine lymphoma model (Eμ-BRD2 (Chung, J., et al. (2013) J. Biological Chemistry 288, 35534-35547)) and human xenograft model of glioblastoma (Yan, F., et al (2014) Cancer Research In Press). Referring to FIG. 62A, controlled expression of a PRMT5 shRNA (solid line) but not control shRNA (dashed line) leads to 100% survival of mice engrafted primary DLBCL tumor cells. […] The maximum tolerated dose (MTD, single dose) was identified at 50 mg/kg (see Table 11 below). A sub-toxic dose (25 mg/kg) was used to treat FcMCL mice. Control mice developed peripheral blood and lymph node tumor burden starting day 20 post-engraftment.

[8] = test system: FLT3 response element in THP-1 cells; assay: FLT3-promoter-Luciferase reporter assay; assay type: cell-based
Protocol: Promoter region of FLT3 (SEQ ID NO. 1: […] […] […] […] […] […] […] […] […] […] […] […] […] […] CGCGAGGCGCGCCGCT.[…] […] […] […] […] […] […]) was cloned into pGL4.11 [luc2P] vector. THP-1 cells were transfected with empty vector or FLT3-promoter luciferase plasmid and Renilla in presence or absence of C12. Firefly luciferase and Renilla luciferase activity was measured using Dual-Luciferase Reporter Assay System (Promega).
A key regulator of FLT3 expression in AML has been previously identified: a transactivation complex composed of transcription factors SP1 and NFκB(p65) (Liu, S., et al. (2010) Cancer Cell 17, 333-347; Blum, W., et al. (2012) Blood 119, 6025-6031). […] The role of PRMT5 in recruitment and localization of these factors to regulatory region of FLT3 was then tested using a chromatin immunoprecipitation (ChIP) assay and antibodies specific for NFκB(p65), SP1 and primers designed to amplify predicted binding sites at the promoter region of FLT3 (Liu, S., et al. (2008) Blood 4, 2364-2373; Liu, S., et al. (2010) Cancer Cell 17, 333-347). […] PRMT5 was then overexpressed in MV4-11 and THP-1 cells, and the ChIP experiment repeated. […] Additionally, supporting a functional role for PRMT5 in modulating FLT3 activity, inhibition of PRMT5 following exposure to C12 disrupted the FLT3 response element (i.e. FLT3-promoter-Luciferase reporter) activities in THP-1 cells (FIG. 43B). […]

## CCn1c2ccccc2c2cc(CNCc3ccccc3OC)ccc21 [HLCL-61]
[1]
  early differentiation marker CD11b: dose-dependent up-regulation
[2]; 24 h, 24 h
  IC50: 17.9 µM
[2]; 48 h, 48 h
  IC50: 14.1 µM
[2]; 72 h, 72 h
  IC50: 10.9 µM
[3]
  IC50: 16.7 µM
[4]
  IC50: 19.1 µM
[5]
  IC50: 7.21 µM
[6]; 24 h, 24 h
  IC50: 6.99 µM
[6]; 48 h, 48 h
  IC50: 7.21 µM
[6]; 72 h, 72 h
  IC50: 5.63 µM
[7]; 5 mg/kg, 24 h
  survival 24 hr after dosing: Alive 24 hr after
[7]; 50 mg/kg
  condition within 1 hr after dosing (alive but slow moving): Alive within 1 hr after
[7]; 50 mg/kg, 24 h
  mice lethargic and slow moving 24 hr after dosing: after dosing, 1 out 4
  survival 24 hr after dosing: moving. Alive 24 hr
[8]
  FLT3 response element (FLT3-promoter-Luciferase reporter) activities: disrupted
